Literature values in publication PMC4287394 (Clinical cancer research : an official journal of the …, 2014).

Details: Phase I; cited from earlier work

| SMILES | Observed DLTs | Hyperglycaemia | Patients with rash | Patients with rash (all grades) [%] |
| --- | --- | --- | --- | --- |
| Nc1cc(C(F)(F)F)c(-c2cc(N3CCOCC3)nc(N3CCOCC3)n2)cn1 [BKM120] | rash, hyperglycemia and mood alterations |  |  |  |
| C=CCN(/C=C1/C(=O)O[C@H](COC)[C@@]2(C)C1=C(O)C(=O)C1=C2[C@H](OC(C)=O)C[C@]2(C)C(=O)CC[C@@H]12)CC=C [PX-866] |  | minimal hyperglycaemia | none |  |
| COc1ccc(Cl)c(Nc2nc3ccccc3nc2NS(=O)(=O)c2cccc(NC(=O)C(C)(C)N)c2)c1 [SAR245408] |  | minimal hyperglycaemia |  | 26 |
